Reference: paper PMC3368886, “ATPase Cycle and DNA Unwinding Kinetics of RecG Helicase” (PLoS ONE, 2012)
Where “and” joins values, the source holds several entries; their conditions need not be identical. Equal values may be shown once.

Tests used:
RecG⋅DNA(A40:B40) [1] = biological target: T1, RecG⋅DNA(A40:B40) (Thermotoga maritima, UniProt Q9WY48); assay: Quench-flow measurement of cleavage step (mantADP formation, HPLC); format: biochemical
T1 construct: made in house
T1 sequence (Q9WY48 1-780): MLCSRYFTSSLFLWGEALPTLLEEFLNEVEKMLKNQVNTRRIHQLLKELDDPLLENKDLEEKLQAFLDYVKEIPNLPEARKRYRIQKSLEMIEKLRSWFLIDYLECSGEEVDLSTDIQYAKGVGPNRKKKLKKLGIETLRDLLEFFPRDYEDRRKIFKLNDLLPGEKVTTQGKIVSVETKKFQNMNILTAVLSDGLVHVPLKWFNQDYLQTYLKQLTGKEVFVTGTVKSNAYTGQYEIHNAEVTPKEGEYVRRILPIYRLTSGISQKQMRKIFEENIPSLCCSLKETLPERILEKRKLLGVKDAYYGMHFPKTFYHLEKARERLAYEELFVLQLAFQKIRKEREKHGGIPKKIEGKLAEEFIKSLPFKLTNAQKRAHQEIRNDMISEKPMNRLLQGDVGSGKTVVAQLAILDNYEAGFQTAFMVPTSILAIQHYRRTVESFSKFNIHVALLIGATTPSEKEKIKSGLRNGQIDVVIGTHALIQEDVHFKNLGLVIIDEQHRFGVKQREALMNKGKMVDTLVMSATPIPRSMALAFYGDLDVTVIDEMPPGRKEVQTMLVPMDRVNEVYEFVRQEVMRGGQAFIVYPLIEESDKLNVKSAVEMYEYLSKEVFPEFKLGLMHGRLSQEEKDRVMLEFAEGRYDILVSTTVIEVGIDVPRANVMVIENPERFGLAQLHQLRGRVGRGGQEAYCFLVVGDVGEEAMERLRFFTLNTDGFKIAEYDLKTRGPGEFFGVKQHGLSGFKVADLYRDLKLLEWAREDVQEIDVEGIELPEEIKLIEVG
Experimental: Single turnover measurements of the cleavage step and Pi release were performed with excess RecG⋅DNA over mantATP using conditions of the mantATP fluorescence measurements, described above. Quench-flow measurements allowed the formation of nucleoside diphosphate to be monitored with high time resolution. MantATP was rapidly mixed with excess RecG⋅DNA, and the reaction mix was quenched in acid at particular time points. The mix was then analyzed by HPLC to quantify mantATP and mantADP, giving the time course of mantADP formation (Figure 4A). This time course had similar kinetics to the slow phase of the mant fluorescence trace (0.2 s^−1), supporting the idea that this phase is mantADP formation.
These were carried out using a HiTech RQF-63 apparatus using different length loops and flow rates to age reactions before quenching using 10% perchloric acid. Samples were analyzed for the ratio of mantATP to mantADP by HPLC, as described.

RecG⋅DNA(A40:B40) [2] = biological target: T1, RecG⋅DNA(A40:B40); assay: Single turnover mant fluorescence, excess RecG⋅DNA over mantATP; format: biochemical
Experimental: Extra information relating to changes in a single ATPase cycle can be obtained by mixing excess RecG⋅DNA(A40:B40) with mantATP (Figure 4A). […] The first change in fluorescence is presumably due to binding. After fitting to a double exponential, the observed rate constant for the initial change was linearly dependent on RecG concentration over the small range possible (0.5 µM –2.5 µM), limited by protein precipitation at higher concentrations. Due to the low concentrations, a hyperbolic dependence would not be observed. The observed rate constant of the second increase in fluorescence, 0.22 (±0.05) s^−1 (Figure 4A), was independent of RecG concentration. This second phase is likely to be due to the cleavage step, leading to the formation of bound mantADP.
Figure 4 Kinetic measurement of mantATP with excess of RecG and DNA: binding, hydrolysis and Pi release. The concentrations for all experiments were 0.5 µM mantATP, 2.5 µM RecG, 5 µM DNA (A40:B40) and 10 µM MDCC-PBP (for Pi measurement). All measurements were carried out at 20°C in the buffer described in Materials and Methods. (A) Time course of mant fluorescence (solid line), mantADP formation (circles) and Pi release (dashed line), measured as described in materials and methods. […] (B) Simulation of these time courses, based upon a global model for a single turnover of mantATP as described in the text. (C) The time course of mant fluorescence upon mixing 0.5 µM mantATP and 2.5 µM RecG with 5 µM DNA junction (A40:B40) after a first mixing of 5 µM RecG and 1 µM mantATP and aging for 1 s.
Stopped-flow experiments were performed in a HiTech SF61DX2 apparatus (TgK Scientific Ltd, Bradford-on-Avon, UK) with a mercury-xenon light source and HiTech KinetAsyst 3 or Kinetic Studio 1 software. For MDCC-PBP fluorescence, the excitation wavelength used was 436 nm and a 455 nm cut-off filter (Schott glass) used to collect emitted light. The signal was calibrated using known concentrations of Pi. The solutions contained the Pi mop, to minimize phosphate contamination and comprising 0.01 unit ml^−1 bacterial purine nucleoside phosphorylase and 200 µM 7-methylguanosine. For mant fluorescence, 366 nm was used to excite and a 400 nm cut-off filter (Schott glass) used to collect light. Measurements of Cy3 fluorescence used 547 nm excitation and a 570 nm cut-off filter. In experiments described, the quoted concentrations are those in the mixing chamber, except where stated. Data were fitted to theoretical curves using the HiTech software or Grafit.

`CNc1ccccc1C(=O)O[C@H]1[C@@H](O)[C@H](n2cnc3c(N)ncnc32)O[C@@H]1COP(=O)(O)OP(=O)(O)OP(=O)(O)O` [mantATP, 2′(3′)-O-(N-methylanthraniloyl)ATP] was tested, and the “rate of mantADP formation (quench-flow time course)” value (RecG⋅DNA(A40:B40) [1]; 0.5 µM mantATP, 2.5 µM RecG, 5 µM DNA) was 0.2 s⁻¹, the “hydrolytic cleavage slower than ATP” value (RecG⋅DNA(A40:B40) [1]; mantATP vs ATP) was roughly 10 fold and the “observed rate constant of the second increase in fluorescence” value (RecG⋅DNA(A40:B40) [2]; 0.5 µM mantATP, excess RecG⋅DNA, independent of RecG concentration) was 0.22 (±0.05) s^−1. For the same compound, the “k +2 (cleavage step)” value (RecG⋅DNA(A40:B40) [2]; 20°C) was 0.2 s⁻¹ and 0.22 s⁻¹, the “initial small increase in fluorescence as part of overall change” value (RecG⋅DNA(A40:B40) [2]; excess RecG⋅DNA over mantATP) was roughly 20% and the “fluorescence intensity increase of bound nucleotide relative to free nucleotide” value (RecG⋅DNA(A40:B40) [2]; excess RecG⋅DNA(A40:B40)) was 1.5 fold.
